This note sets out measurements from ChEMBL document CHEMBL5375989, “Pioneering 4,11-Dioxo-4,11-dihydro-1H-anthra[2,3-d]imidazol-3-ium Compounds as Promising Survivin Inhibitors by Targeting ILF3/NF110 for Cancer Therapy” (J Med Chem, 2023).

Each structure is given as a SMILES string.

A short description of data set [1]: Antiproliferative activity against mouse L929 cells assessed as inhibition of cell growth measured after 48 hrs by MTT assay. The conditions noted are these: mouse, L929 cells. Format: toxicity, cell-based. (In general: Tetrazolium assays rely on reduction of a dye to a coloured formazan, in cell work by metabolically active cells.)
The next data set deals with A549. The data set can be described thus: cells. The conditions noted are these: Homo sapiens, A549, 48 h.
A short description of data set [2]: Selectivity index, ratio of IC50 for mouse L929 cells to IC50 for human A549 cells. Format: toxicity. To be noted: L929 cells and A549 cells, read-out: Ratio IC50.
For another data set, the system named is TE-1. The data set can be described thus: cells. To be noted: Homo sapiens, TE-1, 48 h.
The test system of another data set is 5637. The data set can be described thus: cells. The conditions noted are these: Homo sapiens, 5637, 48 h.

Description for 5637: Antiproliferative activity against human 5637 cells assessed as inhibition of cell growth measured after 48 hrs by MTT assay
Description for A549: Antiproliferative activity against human A549 cells assessed as inhibition of cell growth measured after 48 hrs by MTT assay
Description for TE-1: Antiproliferative activity against human TE-1 cells assessed as inhibition of cell growth measured after 48 hrs by MTT assay

Regarding `CC(C)n1c[n+](C(C)C)c2c1C(=O)c1ccccc1C2=O`, the 50% inhibitory concentration (IC50) at 48 h in data set [1] was 18.6 µM. Moreover, in the data set with A549, the midpoint of inhibition, the IC50, lay at 0.63 µM. For the same molecule, in data set [2], the selectivity ratio worked out at 29.5.
On the same counts, the results for `CCn1c[n+](CC)c2c1C(=O)c1ccccc1C2=O` are 5.2 µM, 0.06 µM and 86.7.
The corresponding values for `CCCn1c[n+](CCC)c2c1C(=O)c1ccccc1C2=O` are 9.8 µM, 0.65 µM and 15.1.
For `O=C1c2ccccc2C(=O)c2c1n(-c1ccccc1)c[n+]2-c1ccccc1`, the IC50 at 48 h in data set [1] stood at 66.9 µM. The molecule further showed a half-inhibitory concentration (IC50) in the data set with A549 of 76.7 µM. Moreover, in data set [2], the selectivity ratio came to 0.87.
With `CCn1c[n+](CC)c2c1C(=O)c1cc3ccccc3cc1C2=O`, the half-inhibitory concentration (IC50) at 48 h in data set [1] is 63.9 µM. The half-maximal inhibitory concentration (IC50) stood at 0.26 µM with A549, 0.18 µM in the data set with TE-1 and 0.52 µM in the data set with 5637.
On the same counts, the results for `CCC(C)Cn1c2c([n+](C)c1C)C(=O)c1cc3ccccc3cc1C2=O` (stereo not drawn) are 43.5 µM, 0.37 µM, 0.68 µM and 1.36 µM.
Regarding `Cn1c2c([n+](C)c1C1CC1)C(=O)c1cc3ccccc3cc1C2=O`, the 50% inhibitory concentration (IC50) at 48 h in data set [1] was 15.4 µM. In the data set with A549, this molecule displayed an IC50 of 0.08 µM. The selectivity ratio in data set [2] was found to be 171.
The corresponding values for `Cn1c2c([n+](C)c1C1CC1)C(=O)c1ccccc1C2=O` are 6.2 µM, 0.08 µM and 78.
As for `CCC(C)Cn1c[n+](C)c2c1C(=O)c1cc3ccccc3cc1C2=O` (stereo not drawn), the IC50 at 48 h in data set [1] was found to be 83.9 µM. Moreover, the results for the IC50 in the data set with A549, in the data set with TE-1 and in the data set on 5637 were 8.4 µM, 0.7 µM and 1.51 µM, respectively.
Turning to `Cn1c2c([n+](C)c1-c1ccccc1F)C(=O)c1cc3ccccc3cc1C2=O`, the concentration for half-maximal inhibition (IC50) at 48 h in data set [1] amounted to 10.7 µM. This molecule also yielded an IC50 with A549 of 0.85 µM. The selectivity ratio in data set [2] was 13.
As for `COc1ccc(Cn2c[n+](C)c3c2C(=O)c2cc4ccccc4cc2C3=O)cc1`, the IC50 at 48 h in data set [1] amounted to 64.4 µM. The results for the 50% inhibitory concentration (IC50) in the data set on A549, with TE-1 and in the data set on 5637 were 0.86 µM, 0.08 µM and 0.8 µM, respectively.
On to `CCn1c[n+](CC)c2c(OC)ccc(OC)c21`, for which, in data set [1], the IC50 at 48 h stood at 95.1 µM. Half-maximal inhibition with A549 (IC50) was put at 13.6 µM. Moreover, the selectivity ratio in data set [2] is 7.
Consider `CCn1c2c([n+](C)c1C)C(=O)c1cc3ccccc3cc1C2=O`, for which, in data set [1], the concentration for half-maximal inhibition (IC50) at 48 h was found to be 23.3 µM. In addition, the IC50 is 0.21 µM in the data set with A549, 0.08 µM in the data set with TE-1 and 0.46 µM with 5637.
Consider `CCn1c[n+](CC)c2ccccc21`, for which, in data set [1], the IC50 at 48 h is above 200 µM. Further, in the data set with A549, the IC50 is above 100 µM. For the same molecule, the selectivity ratio in data set [2] was below 10.
Consider `CC1=C(C)C(=O)c2c(n(C)c[n+]2C)C1=O`, for which, in data set [1], the IC50 at 48 h came out at 119 µM. This molecule registered an IC50 in the data set with A549 of 32.1 µM. Besides, the selectivity ratio in data set [2] stood at 3.7.
For the molecule `Cn1c2c([n+](C)c1-c1ccco1)C(=O)c1ccccc1C2=O`, the 50% inhibitory concentration (IC50) at 48 h in data set [1] stood at 7 µM. Besides, it took 0.68 µM to reach half-maximal inhibition with A549 (IC50). In addition, the selectivity ratio in data set [2] was determined as 10.
The corresponding values for `CCCCn1c[n+](CCCC)c2c1C(=O)c1ccccc1C2=O` are 6 µM, 0.51 µM and 11.8.
Consider `CC(C)=CCn1c[n+](C)c2c1C(=O)c1cc3ccccc3cc1C2=O`, for which, in data set [1], the IC50 at 48 h came out at 58.7 µM. Moreover, the IC50 in the data set on A549 amounted to 1.81 µM; in the data set on TE-1 it was 22 µM; in the data set on 5637 it was 1.13 µM.
The corresponding values for `C[n+]1cn(Cc2cccc(F)c2)c2c1C(=O)c1cc3ccccc3cc1C2=O` are 22.8 µM, 0.91 µM, 0.27 µM and 0.55 µM.
With `CCn1c[n+](C)c2c1C(=O)c1cc3ccccc3cc1C2=O`, the IC50 at 48 h in data set [1] is 49.3 µM. Moreover, the IC50 in the data set with A549 worked out at 0.24 µM; in the data set on TE-1 it was 0.08 µM; in the data set with 5637, 0.1 µM.
On the same counts, the results for `CC(C)Cn1c[n+](C)c2c1C(=O)c1cc3ccccc3cc1C2=O` are 87.4 µM, 1.87 µM, 0.77 µM and 0.75 µM.
The corresponding values for `Cc1n(Cc2ccccc2F)c2c([n+]1C)C(=O)c1cc3ccccc3cc1C2=O` are 12.6 µM, 0.46 µM, 0.55 µM and 0.53 µM.
For `CCc1n(C)c2c([n+]1C)C(=O)c1cc3ccccc3cc1C2=O`, the IC50 at 48 h in data set [1] is 14.6 µM. In addition, the IC50 with A549 stood at 0.22 µM. Also, in data set [2], the selectivity ratio came out at 66.
For `CCCCn1c2c([n+](C)c1C)C(=O)c1cc3ccccc3cc1C2=O`, the half-maximal inhibitory concentration (IC50) at 48 h in data set [1] stood at 13.6 µM. The IC50 with A549 worked out at 0.09 µM; with TE-1, 0.09 µM; in the data set on 5637, 0.33 µM.
Consider `COCCn1c[n+](CCOC)c2c1C(=O)c1ccccc1C2=O`, for which, in data set [1], the 50% inhibitory concentration (IC50) at 48 h amounted to 9.9 µM. The molecule also gave an IC50 with A549 of 0.61 µM. For the same molecule, the selectivity ratio in data set [2] stood at 16.2.
Regarding `COCCOCCn1c[n+](C)c2c1C(=O)c1cc3ccccc3cc1C2=O`, the IC50 at 48 h in data set [1] is above 100 µM. In addition, the concentration for half-maximal inhibition (IC50) with A549 came out at 0.21 µM; in the data set with TE-1, 0.07 µM; with 5637 it was 0.18 µM.
On the same counts, the results for `C[n+]1cn(Cc2ccccc2F)c2c1C(=O)c1cc3ccccc3cc1C2=O` are 17.7 µM, 0.38 µM, 0.19 µM and 0.47 µM.
On the same counts, the results for `Cc1n(Cc2ccc(F)cc2)c2c([n+]1C)C(=O)c1cc3ccccc3cc1C2=O` are 76.8 µM, 0.64 µM, 0.25 µM and 1.36 µM.
`CCC(C)n1c[n+](C)c2c1C(=O)c1cc3ccccc3cc1C2=O` (stereo not drawn): the half-inhibitory concentration (IC50) at 48 h in data set [1] was above 100 µM. Moreover, the IC50 stood at 5.65 µM with A549, 2.33 µM in the data set on TE-1 and 2.76 µM in the data set with 5637.
The corresponding values for `Cc1n(C(C)C)c2c([n+]1C)C(=O)c1cc3ccccc3cc1C2=O` are 17.9 µM, 0.09 µM, 0.15 µM and 0.06 µM.
Consider `Cn1c[n+](C)c2c1C(=O)c1cccc([N+](=O)[O-])c1C2=O`, for which the IC50 at 48 h in data set [1] came to 17.5 µM. In the data set with A549, the IC50 is 0.04 µM. The selectivity ratio in data set [2] was found to be 438.
As to `CC(C)n1c[n+](C)c2c1C(=O)c1cc3ccccc3cc1C2=O`, in data set [1], the IC50 at 48 h was found to be 84 µM. For the same molecule, the half-inhibitory concentration (IC50) in the data set with A549 worked out at 0.45 µM; in the data set with TE-1, 0.42 µM; with 5637, 0.75 µM.
On the same counts, the results for `CCCn1c2c([n+](C)c1C)C(=O)c1cc3ccccc3cc1C2=O` are 22.1 µM, 1.22 µM, 0.38 µM and 0.58 µM.
As to `Cc1n(Cc2ccccc2)c2c([n+]1C)C(=O)c1cc3ccccc3cc1C2=O`, the concentration for half-maximal inhibition (IC50) at 48 h in data set [1] is 30.6 µM. The IC50 in the data set with A549 worked out at 0.88 µM; in the data set with TE-1, 0.52 µM; with 5637, 0.78 µM.
The corresponding values for `CC(C)CCn1c[n+](C)c2c1C(=O)c1cc3ccccc3cc1C2=O` are above 16.4 µM, 9.3 µM, 0.91 µM and 1.78 µM.
On the same counts, the results for `Cc1n(CC2OCCO2)c2c([n+]1C)C(=O)c1cc3ccccc3cc1C2=O` are 79.9 µM, 0.32 µM, 0.23 µM and 1.65 µM.
Regarding `Cc1n(Cc2cccc(F)c2)c2c([n+]1C)C(=O)c1cc3ccccc3cc1C2=O`, the 50% inhibitory concentration (IC50) at 48 h in data set [1] is 45.9 µM. For the same molecule, the IC50 is 0.39 µM in the data set with A549, 0.16 µM in the data set on TE-1 and 0.89 µM in the data set with 5637.
The corresponding values for `C[n+]1cn(Cc2ccccc2)c2c1C(=O)c1cc3ccccc3cc1C2=O` are 37.1 µM, 0.49 µM, 0.11 µM and 0.41 µM.
On the same counts, the results for `CCCCn1c[n+](C)c2c1C(=O)c1cc3ccccc3cc1C2=O` are 65.1 µM, 0.67 µM, 59 µM and 0.59 µM.
The corresponding values for `COCC[n+]1c2c(n(Cc3cnccn3)c1C)C(=O)c1cc3ccccc3cc1C2=O` are 141 µM, 4.5 µM, 0.91 µM and 1.05 µM.
Consider `Cc1n(CC#N)c2c([n+]1C)C(=O)c1cc3ccccc3cc1C2=O`, for which, in data set [1], the IC50 at 48 h was determined as 9.57 µM. The IC50 is 0.46 µM in the data set on A549, 0.67 µM with TE-1 and 0.72 µM in the data set on 5637.
The corresponding values for `Cc1n(CC(C)C)c2c([n+]1C)C(=O)c1cc3ccccc3cc1C2=O` are 15.4 µM, 0.06 µM, 0.08 µM and 0.41 µM.
On the same counts, the results for `CC(C)=CCn1c2c([n+](C)c1C)C(=O)c1cc3ccccc3cc1C2=O` are 5.52 µM, 0.06 µM, 0.07 µM and 0.4 µM.
For the molecule `COCCn1c2c([n+](C)c1C)C(=O)c1cc3ccccc3cc1C2=O`, the IC50 at 48 h in data set [1] was determined as 11 µM. For the same molecule, the 50% inhibitory concentration (IC50) in the data set with A549 was 0.23 µM; in the data set on TE-1, 0.09 µM; with 5637, 0.07 µM.
On the same counts, the results for `C[n+]1cn(Cc2ccc(F)cc2)c2c1C(=O)c1cc3ccccc3cc1C2=O` are 41.1 µM, 0.71 µM, 0.13 µM and 0.52 µM.
The corresponding values for `CCn1c2c([n+](CC)c1C)C(=O)c1cc3ccccc3cc1C2=O` are 33.8 µM, 0.07 µM, 0.42 µM and 0.88 µM.
On the same counts, the results for `C#CCn1c2c([n+](C)c1C)C(=O)c1cc3ccccc3cc1C2=O` are 23.8 µM, 0.25 µM, 0.39 µM and 1.71 µM.

As usually defined, the IC50 is the point on the concentration scale where inhibition reaches its midpoint.
